This series is described as follows: Alanine transaminase (ALT) and aspartate transaminase (AST) assays in serum. The series is classed as in vivo, mice. Here is the method: Alanine transaminase (ALT) and aspartate transaminase (AST) assays. On day 45 of protocol 1 and day 7 and day 63 of protocol 2, three mice from each protocol were euthanized, and blood was collected through cardiac puncture. The serum was isolated by centrifuging the whole blood samples at 1500 g for 10 min and then maintained on wet ice before analysis. ALT and AST levels were measured in duplicates using assay kits (StanBio, Boerne, TX) according to the manufacturer's instructions. ALT and AST levels were determined using the rate of NADH oxidation, which was quantified by measuring absorbance at 340 nm using a CLARIOstar plate reader (BMG Labtech in Cary, NC). ALT and AST were tested for significance at multiple collection time points, tests for significance included a test for normality (Shapiro-Wilk test) and following the test for normality were then analyzed using an unpaired t-test with significance determined by an alpha of P = 0.05. […]
any significant differences between groups.
Fertility analysis. Sexually mature male C57/129 hybrid mice were randomly assigned to either the vehicle control treatment or the CDD-2807 treatment groups. Drug formulation and injections were as follows: for protocol 1 mice receiving the 15 mg/kg CDD-2807 twice daily dosing had the compound dissolved in DMSO, which was injected at 5% of the final volume in 10% Captisol and water. For protocol 2 mice receiving a single daily dose of 50 mg/kg CDD-2807, the compound was dissolved in DMSO and injected at 5% in 20% Captisol and water. All injections were administered as i.p. injections, and for the 15 mg/kg CDD-2807 and DMSO control mice, the injections were delivered in the morning and the evening. Mice in the 50 mg/kg dosing received i.p. injections once in the evening. Weights were measured daily prior to drug administration and monitored throughout the entirety of the injection period. […]

The compound `O=C(c1ccc2[nH]nc(C#Cc3ccccc3-c3ccccc3)c2c1)N1CC2(CCCNC2)C1` [CDD-2807] gave an ALT (Protocol 1, 45 Days) of 20.33 ± 5.30 IU/L; an ALT (Protocol 2, 7 Days) of 23.65 ± 2.50 IU/L; an ALT (Protocol 2, 63 Days) of 45.97 ± 11.04 IU/L. In addition, the AST (Protocol 1, 45 Days) came out at 35.80 ± 3.09 IU/L; the AST (Protocol 2, 7 Days) amounted to 21.66 ± 3.30 IU/L; the AST (Protocol 2, 63 Days) is given as 29.76 ± 6.79 IU/L.

The values are drawn from article PMC11842024, “Reversible male contraception by targeted inhibition of serine/threonine kinase 33” (Science (New York, N.Y.), 2024).
